Columns and labels:
Assay type in all cases: cell-based
SN12C [1] = assay: NCI DTP in-vitro dose response, Renal Cancer; conditions: SN12C
786-0 = assay: NCI DTP in-vitro dose response, Renal Cancer
TK-10 = assay: NCI DTP in-vitro dose response, Renal Cancer
ACHN [2] = assay: NCI DTP in-vitro dose response, Renal Cancer; conditions: ACHN
CAKI-1 = assay: NCI DTP in-vitro dose response, Renal Cancer
RXF 393 = assay: NCI DTP in-vitro dose response, Renal Cancer
A498 = assay: NCI DTP in-vitro dose response, Renal Cancer
UO-31 [3] = assay: NCI DTP in-vitro dose response, Renal Cancer
U251 = assay: in vitro test at 1.0×10^−5 M, CNS cancer cell; conditions: 1.0×10^−5 molal concentration (M)
UACC-257 = assay: in vitro test at 1.0×10^−5 M, Skin cancer cell; conditions: 1.0×10^−5 molal concentration (M)
SK-MEL-2 = assay: in vitro test at 1.0×10^−5 M, Skin cancer cell; conditions: 1.0×10^−5 molal concentration (M)
MCF7 = assay: in vitro test at 1.0×10^−5 M, Breast cancer cell; conditions: 1.0×10^−5 molal concentration (M)
MALME-3M = assay: in vitro test at 1.0×10^−5 M, Skin cancer cell; conditions: 1.0×10^−5 molal concentration (M)
MDA-MB-435 = assay: in vitro test at 1.0×10^−5 M, Breast cancer cell; conditions: 1.0×10^−5 molal concentration (M)
LOX IMV1 = assay: in vitro test at 1.0×10^−5 M, Skin cancer cell; conditions: 1.0×10^−5 molal concentration (M)
HCC-2998 = assay: in vitro test at 1.0×10^−5 M, Colorectal cancer cell; conditions: 1.0×10^−5 molal concentration (M)
MDA-MB-468 = assay: in vitro test at 1.0×10^−5 M, Breast cancer cell; conditions: 1.0×10^−5 molal concentration (M)
IGROV1 = assay: in vitro test at 1.0×10^−5 M, Ovary cancer cell; conditions: 1.0×10^−5 molal concentration (M)
OVCAR-4 = assay: in vitro test at 1.0×10^−5 M, Ovary cancer cell; conditions: 1.0×10^−5 molal concentration (M)
UO-31 [4] = assay: in vitro test at 1.0×10^−5 M, Kidney cancer cell; conditions: 1.0×10^−5 molal concentration (M)
SF-539 = assay: in vitro test at 1.0×10^−5 M, CNS cancer cell; conditions: 1.0×10^−5 molal concentration (M)
[5] = system: different cancer cell lines; assay: in vitro test at 1.0×10^−5 M, summary over the cell lines; design: unit not given here; conditions: 1.0×10^−5 molal concentration (M)
MOLT-4 = assay: in vitro test at 1.0×10^−5 M, Blood cancer cell; conditions: 1.0×10^−5 molal concentration (M)
SN12C [6] = assay: in vitro test at 1.0×10^−5 M, Kidney cancer cell; conditions: 1.0×10^−5 molal concentration (M)
T-47D = assay: in vitro test at 1.0×10^−5 M, Breast cancer cell; conditions: 1.0×10^−5 molal concentration (M)
ACHN [7] = assay: in vitro test at 1.0×10^−5 M, Kidney cancer cell; conditions: 1.0×10^−5 molal concentration (M)
UACC-62 = assay: in vitro test at 1.0×10^−5 M, Skin cancer cell; conditions: 1.0×10^−5 molal concentration (M)
HOP-92 = assay: in vitro test at 1.0×10^−5 M, Non-small cell lung cancer cell; conditions: 1.0×10^−5 molal concentration (M)
[8] = read-out: LC50 (the source's name)

For `O=C1c2ccccc2C(=O)c2c1ccc1nccnc21` [TABLE 5-7], the TGI (SN12C [1]) was 9.27E−5, the “Percent Growth” value (SN12C [1]; Log10 Concentration −4.0) was −2% and the “Percent Growth” value (SN12C [1]; Log10 Concentration −5.0) was 57%. The “Percent Growth” value (SN12C [1]; Log10 Concentration −6.0) was 78%, the “Percent Growth” value (SN12C [1]; Log10 Concentration −7.0) was 71% and the “Percent Growth” value (SN12C [1]; Log10 Concentration −8.0) was 87%. For the same molecule, the GI50 (SN12C [1]; read-out: GI50) was 13.2 µM, the CC50 (SN12C [1]; [8]) was > 100 µM and the TGI (786-0; 786-0) was >1.00E−4. The “Percent Growth” value (786-0; 786-0, Log10 Concentration −4.0) was 15%, the “Percent Growth” value (786-0; 786-0, Log10 Concentration −5.0) was 47% and the “Percent Growth” value (786-0; 786-0, Log10 Concentration −6.0) was 104%. For the same molecule, the “Percent Growth” value (786-0; 786-0, Log10 Concentration −7.0) was 101%, the “Percent Growth” value (786-0; 786-0, Log10 Concentration −8.0) was 98% and the GI50 (786-0; 786-0, read-out: GI50) was 8.87 µM. For the same molecule, the CC50 (786-0; 786-0, read-out: LC50 (the source's name)) was > 100 µM, the TGI (TK-10; TK-10) was >1.00E−4 and the “Percent Growth” value (TK-10; TK-10, Log10 Concentration −4.0) was 2%. The “Percent Growth” value (TK-10; TK-10, Log10 Concentration −5.0) was 36%, the “Percent Growth” value (TK-10; TK-10, Log10 Concentration −6.0) was 83% and the “Percent Growth” value (TK-10; TK-10, Log10 Concentration −7.0) was 85%. For the same molecule, the “Percent Growth” value (TK-10; TK-10, Log10 Concentration −8.0) was 102%, the GI50 (TK-10; TK-10, read-out: GI50) was 5 µM and the CC50 (TK-10; TK-10, read-out: LC50 (the source's name)) was > 100 µM. For the same molecule, the TGI (ACHN [2]) was >1.00E−4, the “Percent Growth” value (ACHN [2]; Log10 Concentration −4.0) was 2% and the “Percent Growth” value (ACHN [2]; Log10 Concentration −5.0) was 31%. The “Percent Growth” value (ACHN [2]; Log10 Concentration −6.0) was 77%, the “Percent Growth” value (ACHN [2]; Log10 Concentration −7.0) was 87% and the “Percent Growth” value (ACHN [2]; Log10 Concentration −8.0) was 98%. The GI50 (ACHN [2]; read-out: GI50) was 3.85 µM, the CC50 (ACHN [2]; [8]) was > 100 µM and the TGI (CAKI-1; CAKI-1) was >1.00E−4. For the same molecule, the “Percent Growth” value (CAKI-1; CAKI-1, Log10 Concentration −4.0) was 4%, the “Percent Growth” value (CAKI-1; CAKI-1, Log10 Concentration −5.0) was 39% and the “Percent Growth” value (CAKI-1; CAKI-1, Log10 Concentration −6.0) was 87%. The “Percent Growth” value (CAKI-1; CAKI-1, Log10 Concentration −7.0) was 89%, the “Percent Growth” value (CAKI-1; CAKI-1, Log10 Concentration −8.0) was 94% and the GI50 (CAKI-1; CAKI-1, read-out: GI50) was 5.83 µM. The CC50 (CAKI-1; CAKI-1, read-out: LC50 (the source's name)) was > 100 µM, the GI50 (RXF 393; RXF 393) was 6.43 µM and the TGI (RXF 393; RXF 393) was >1.00E−4. The “Percent Growth” value (RXF 393; RXF 393, Log10 Concentration −4.0) was 7%, the “Percent Growth” value (RXF 393; RXF 393, Log10 Concentration −5.0) was 43% and the “Percent Growth” value (RXF 393; RXF 393, Log10 Concentration −6.0) was 81%. The “Percent Growth” value (RXF 393; RXF 393, Log10 Concentration −7.0) was 93%, the “Percent Growth” value (RXF 393; RXF 393, Log10 Concentration −8.0) was 97% and the CC50 (RXF 393; RXF 393, read-out: LC50 (the source's name)) was > 100 µM. The TGI (A498; A498) was 5.03E−5, the “Percent Growth” value (A498; A498, Log10 Concentration −4.0) was −21% and the “Percent Growth” value (A498; A498, Log10 Concentration −5.0) was 49%. The “Percent Growth” value (A498; A498, Log10 Concentration −6.0) was 89%, the “Percent Growth” value (A498; A498, Log10 Concentration −7.0) was 85% and the “Percent Growth” value (A498; A498, Log10 Concentration −8.0) was 93%. For the same molecule, the GI50 (A498; A498, read-out: GI50) was 9.31 µM, the CC50 (A498; A498, read-out: LC50 (the source's name)) was > 100 µM and the TGI (UO-31 [3]; UO-31) was 8.59E−5. The “Percent Growth” value (UO-31 [3]; UO-31, Log10 Concentration −4.0) was −2%, the “Percent Growth” value (UO-31 [3]; UO-31, Log10 Concentration −5.0) was 25% and the “Percent Growth” value (UO-31 [3]; UO-31, Log10 Concentration −6.0) was 73%. For the same molecule, the “Percent Growth” value (UO-31 [3]; UO-31, Log10 Concentration −7.0) was 73%, the “Percent Growth” value (UO-31 [3]; UO-31, Log10 Concentration −8.0) was 80% and the GI50 (UO-31 [3]; UO-31, read-out: GI50) was 3.02 µM. For the same molecule, the CC50 (UO-31 [3]; UO-31, read-out: LC50 (the source's name)) was > 100 µM.
In the case of `O=C1c2ccccc2C(=O)c2c1ccc1nccnc21` [No. 25, Naphthol-[2,3-f]quinoxaline-7,12-dione], the “inhibition effect on cancer cell line (Table 2 value)” value (“inhibition effect on cancer cell line” below) (U251) is reported as 63.47, the “inhibition effect on cancer cell line” value (UACC-257) is reported as 91.06 and the “inhibition effect on cancer cell line” value (SK-MEL-2) is reported as 6.66. The “inhibition effect on cancer cell line” value (MCF7) was 39.68, the “inhibition effect on cancer cell line” value (MALME-3M) was 180.88 and the “inhibition effect on cancer cell line” value (MDA-MB-435) was 102.03. For the same molecule, the “inhibition effect on cancer cell line” value (LOX IMV1) was 44.18, the “inhibition effect on cancer cell line” value (HCC-2998) was −7.15 and the “inhibition effect on cancer cell line” value (MDA-MB-468) was 75.28. The “inhibition effect on cancer cell line” value (IGROV1) was 3.44, the “inhibition effect on cancer cell line” value (OVCAR-4) was 94.22 and the “inhibition effect on cancer cell line” value (UO-31 [4]) was 51.45. The “inhibition effect on cancer cell line” value (SF-539) was 40.72, the Mean [5] was 69.36 and the “inhibition effect on cancer cell line” value (MOLT-4) was 22.91. The “inhibition effect on cancer cell line” value (SN12C [6]) was 64.65, the “inhibition effect on cancer cell line” value (T-47D) was 85.19 and the “inhibition effect on cancer cell line” value (ACHN [7]) was 46.52. The “inhibition effect on cancer cell line” value (UACC-62) was 90.47.
In the case of `O=C1c2ccccc2C(=O)c2c1ccc1[nH]c(=O)c(=O)[nH]c21` [No. 26, Naphtho[2,3-f]quinoxaline-2,3,7,12 (1H,4H)-tetraone], the “inhibition effect on cancer cell line” value (U251) is reported as 95.92, the “inhibition effect on cancer cell line” value (UACC-257) is reported as 118.21 and the “inhibition effect on cancer cell line” value (SK-MEL-2) is reported as 21.96. For the same molecule, the “inhibition effect on cancer cell line” value (MCF7) was 85.17, the “inhibition effect on cancer cell line” value (MALME-3M) was 149.83 and the “inhibition effect on cancer cell line” value (MDA-MB-435) was 144.42. For the same molecule, the “inhibition effect on cancer cell line” value (HOP-92) was −15.08, the “inhibition effect on cancer cell line” value (LOX IMV1) was 96.94 and the “inhibition effect on cancer cell line” value (HCC-2998) was 77.59. The “inhibition effect on cancer cell line” value (MDA-MB-468) was 38.35, the “inhibition effect on cancer cell line” value (IGROV1) was 13.36 and the “inhibition effect on cancer cell line” value (OVCAR-4) was 103.31. For the same molecule, the “inhibition effect on cancer cell line” value (UO-31 [4]) was 61.43, the “inhibition effect on cancer cell line” value (SF-539) was 101.16 and the Mean [5] was 100.83. For the same molecule, the “inhibition effect on cancer cell line” value (MOLT-4) was 121.52, the “inhibition effect on cancer cell line” value (SN12C [6]) was 94.07 and the “inhibition effect on cancer cell line” value (T-47D) was 87.10. For the same molecule, the “inhibition effect on cancer cell line” value (ACHN [7]) was 81.33 and the “inhibition effect on cancer cell line” value (UACC-62) was 95.25.
